Experimental data as given in EP0193189A1, “Novel compound, its production and insecticidal and acaricidal composition containing it as an active ingredient” (SUMITOMO CHEMICAL COMPANY, LIMITED, priority 1985, dated 1986).
In brackets after ≈: the same amount, converted by molar mass.

Each compound was assayed on resistant strain of green rice leafhopper (Nephotetix cincticeps) (assay: Test Example 3: rice seedling dip test, resistant green rice leafhopper). Conditions: Nephotettix cincticeps, 24 h, rice seedlings dipped 1 minute; adults of resistant strain; after one day; read-out: LC50 value (ppm).
Type: in vivo
Description: The emulsifiable concentrates of the following present compounds and control compounds obtained according to Formulation example 2 were each diluted with water to a prescribed concentration, and rice seedlings (about 12 cm in length) were dipped for 1 minute in the resulting aqueous dilute solutions. After air-drying, the seedlings were placed in test tube, and 10 adults of a resistant strain of green rice leafhopper (Nephotetix cincticeps) were liberated in the tube. After one day, the dead and alive of the adults were examined to obtain LC50 (50% lethal concentration)(two replications).
Compound C#CC(C)(CCCc1ccc(F)c(Nc2ccccc2)c1)c1ccc(OCC)cc1 (centres unmarked) [(21)] has an LC50 of 24 µg/mL (≈ 59.8 µM).
In the case of C#CC(C)(CCCc1ccc(F)c(Oc2ccccc2)c1)c1ccc(OCC)c(Cl)c1 (centres unmarked) [(11)], the LC50 is reported as 49 µg/mL (≈ 112 µM).
In the case of C#CC(C)(CCCc1ccc(F)c(Oc2ccccc2)c1)c1ccc(F)cc1 (centres unmarked) [(9)], the LC50 is reported as 49 µg/mL (≈ 130 µM).
C#CC(C)(CCCc1ccc(F)c(Oc2ccccc2)n1)c1ccc(OCC)cc1 (centres unmarked) [(20)] was tested, and the LC50 was 74 µg/mL (≈ 183 µM).

What follows are compounds tested on carmine spider mite (Tetranychus cinnabarinus) (assay: Test Example 8: carmine spider mite on potted kidney bean, degree of damage). Conditions: 500 ppm spray 10 ml/pot plus 2 ml soil treatment; after 8 days.
Type: in vivo
Description: The female adults of carmine spider mite (Tetranychus cinnabarinus) were put at a rate of 10 adults/leaf on the leaves of potted kidney bean (at the primordial leaf stage) which had elapsed 7 days after sowing, and placed in a constant-temperature room kept at 25°C. After 6 days, the 200-fold aqueous dilute solutions (corresponding to 500 ppm), prepared from the emulsifiable concentrates of the following present compounds and control compounds prepared according to Formulation example 2, were each sprayed at a rate of 10 ml/pot on a turn table. At the same time, the soil in the pot was treated with 2 ml of each aqueous solution. After 8 days, the degree of damage of the plant by the mite was examined.
Criteria of the effect: • - : No damage is observed. • + : Slight damage is observed. • ++: The same damage as in the untreated plot is observed.
For C#CC(C)(CCCc1ccc(F)c(Oc2ccccc2)n1)c1ccc(OCC)cc1 (centres unmarked) [(20)], the Degree of damage was “- ~ +”.

Each compound was assayed on houseflies (Musca domestica) of WHO strains (assay: Test Example 6: housefly filter paper and sucrose bait test). Conditions: 0.7 ml on filter paper with sucrose bait, adult females, after 48 hours, read-out: LC50 value (ppm).
Type: in vivo
Description: On the bottom of a polyethylene cup of 5.5 cm- in diameter was placed a piece of filter paper of the same size as the bottom, and 0.7 ml of a test solution, prepared by diluting the emulsifiable concentrates of the following present compounds and control compounds prepared according to Formulation example 2 to a prescribed concentration with water, was added dropwise to the filter paper. Thirty milligrams of sucrose were uniformly placed on the filter paper as bait. Thereafter, 10 adult female houseflies (Musca domestica) of WHO strains were liberated in the cup, which was then covered with a lid. After 48 hours, the dead and alive were examined to obtain LC50 value (50% lethal concentration) (two replications).
C#CC(C)(CCCc1ccc(F)c(Oc2ccccc2)c1)c1ccc(OCC)c(Cl)c1 (centres unmarked) [(11)] was tested, and the LC50 was 12 µg/mL (≈ 27.5 µM).

Each compound was assayed on rice stem borer (Chilo suppressalis) (assay: Test Example 5: rice stem borer larvae on treated artificial feed). Conditions: 1 ml solution in artificial feed, larvae 10 days old, read-out: LC50 value (ppm).
Type: in vivo
Excerpt: The emulsifiable concentrates of the following present compounds and control compounds obtained according to Formulation example 2 were each diluted with water to a prescribed concentration, and one ml each of thus prepared solutions was impregnated into the artificial feeds for rice stem borer (Chilo suppressalis) which had been previously prepared in polyethylene cups of 5.5 cm in diameter, respectively. Ten of the larvae of the 10 days old were liberated thereon. The dead and alive larvae were examined to obtain LC50 value (50% lethal concentration) (two replications).
C#CC(C)(CCCc1ccc(F)c(Nc2ccccc2)c1)c1ccc(OCC)cc1 (centres unmarked) [(21)] showed an LC50 of 1.5 µg/mL (≈ 3.74 µM).
Work on C#CC(C)(CCCc1ccc(F)c(Oc2ccccc2)c1)c1ccc(OCC)c(Cl)c1 (centres unmarked) [(11)] yielded an LC50 of 2.3 µg/mL (≈ 5.26 µM).
Compound C#CC(C)(CCCc1ccc(F)c(Oc2ccccc2)c1)c1ccc(F)cc1 (centres unmarked) [(9)] has an LC50 of 4.2 µg/mL (≈ 11.2 µM).

The compounds below were run on brown rice planthopper (Nila^parvata luqens) (assay: Test Example 4: rice seedling dip test, brown rice planthopper). Conditions: 24 h; rice seedlings dipped 1 minute; adults; after one day; read-out: LC50 value (ppm).
Type: in vivo
Description: The emulsifiable concentrates of the-following present compounds and control compounds obtained according to Formulation example 2 were each diluted with water to a prescribed concentration, and the rice seedlings (about 12 cm in length) were dipped for 1 minute in the resulting aqueous dilute solutions. After air-drying, the seedlings were placed in a test tube, and 10 adults of brown rice planthopper (Nila^parvata luqens) were liberated in the tube. After one day, the dead and alive of the adults were examined to obtain LC50 value (50% lethal concentration)(two replications).
C#CC(C)(CCCc1ccc(F)c(Nc2ccccc2)c1)c1ccc(OCC)cc1 (centres unmarked) [(21)] was tested, and the LC50 was 15 µg/mL (≈ 37.4 µM).
C#CC(C)(CCCc1ccc(F)c(Oc2ccccc2)n1)c1ccc(OCC)cc1 (centres unmarked) [(20)] showed an LC50 of 25 µg/mL (≈ 62 µM).

Each compound was assayed on tobacco cutworms (Spodoptera litura) (assay: Test Example 2: tobacco cutworm larvae on treated artificial feed). Conditions: Spodoptera litura, 144 h; 150 ppm solution, 2 ml in 13 g artificial feed; 4th instar larvae; six days after; read-out: Mortality (%).
Type: in vivo
Excerpt: The emulsifiable concentrates of the following present compounds obtained according to Formulation example 2 were each diluted with water to obtain respective 667 times dilution aqueous solutions (corresponding to 150 ppm) containing said compounds, respectively. Two ml of thus diluted solutions were impregnated into the artificial feeds (13 g) for tobacco cutworms (Spodoptera litura) and thus prepared feeds were placed in polyethylene cups of 11 cm in diameter, respectively. Ten of the 4th instar larvae were liberated thereon.
Six days after, the dead and alive of the larvae were examined to calculate the mortality (two replications).
C#CC(C)(CCCc1ccc(F)c(Nc2ccccc2)c1)c1ccc(OCC)cc1 (centres unmarked) [(21)] gave a mortality at 150 ppm of 100%.
C#CC(C)(CCCc1ccc(F)c(Oc2ccccc2)c1)c1ccc(OCC)c(Cl)c1 (centres unmarked) [(11)] showed a mortality at 150 ppm of 100%.
C#CC(C)(CCCc1ccc(F)c(Oc2ccccc2)c1)c1ccc(F)cc1 (centres unmarked) [(9)] gave a mortality at 150 ppm of 100%.
Compound C#CC(C)(CCCc1ccc(F)c(Oc2ccccc2)n1)c1ccc(OCC)cc1 (centres unmarked) [(20)] has a mortality at 150 ppm of 100%.

These compounds were tested on common mosquito (Culex pipiens pallens) (assay: Test Example 1: common mosquito larvae in diluted emulsifiable concentrate, mortality and emergence inhibition). Conditions: Culex pipiens, 24 h; 3.5 ppm; 20 last instar larvae; after one day; read-out: Mortality.
Type: in vivo
Description: The emulsifiable concentrates of the following present compounds obtained according to Formulation example 2 were each diluted with water so as to obtain respective aqueous solutions containing 3.5 ppm of said compounds, respectively. One hundred ml of thus diluted aqueous solutions were poured into respective polyethylene cups of 180 ml volume, and 20 of the last instar larvae of common mosquito (Culex pipiens pallens) were liberated thereto. After one day, the dead or alive of the larvae were examined.
Thereafter, the feed was added to respective cups and the number of emerged pupae of the respective cups was counted when all the pupae of no treatment group had emerged to calculate the inhibitory ratios of the emergence.
The mortality and the inhibitory ratio of the emergence are shown according to the following three criteria: • mortality: A; 90% or more, • B; less than 90% to 10%, • C; less than 10%. • inhibitory: A; 90% or more, ratio of • emergence B; less than 90% to 80% • C; less than 80%.
C#CC(C)(CCCc1ccc(F)c(Nc2ccccc2)c1)c1ccc(OCC)cc1 (centres unmarked) [(21)] was tested, and the mortality at 3.5 ppm was greater than 90%.
C#CC(C)(CCCc1ccc(F)c(Oc2ccccc2)c1)c1ccc(OCC)c(Cl)c1 (centres unmarked) [(11)] was tested, and the mortality at 3.5 ppm was greater than 90%.
C#CC(C)(CCCc1ccc(F)c(Oc2ccccc2)c1)c1ccc(F)cc1 (centres unmarked) [(9)] was tested, and the mortality at 3.5 ppm was greater than 90%.
C#CC(C)(CCCc1ccc(F)c(Oc2ccccc2)n1)c1ccc(OCC)cc1 (centres unmarked) [(20)] was tested, and the mortality at 3.5 ppm was greater than 90%.

Same assay, conditions: Culex pipiens; 3.5 ppm; counted when all pupae of no treatment group had emerged; read-out: Inhibitory ratio of emergence
C#CC(C)(CCCc1ccc(F)c(Nc2ccccc2)c1)c1ccc(OCC)cc1 (centres unmarked) [(21)] was tested, and the pest or weed control at 3.5 ppm was greater than 90%.
Work on C#CC(C)(CCCc1ccc(F)c(Oc2ccccc2)c1)c1ccc(OCC)c(Cl)c1 (centres unmarked) [(11)] yielded a pest or weed control at 3.5 ppm greater than 90%.
Compound C#CC(C)(CCCc1ccc(F)c(Oc2ccccc2)c1)c1ccc(F)cc1 (centres unmarked) [(9)] has a pest or weed control at 3.5 ppm greater than 90%.
With C#CC(C)(CCCc1ccc(F)c(Oc2ccccc2)n1)c1ccc(OCC)cc1 (centres unmarked) [(20)] the pest or weed control at 3.5 ppm was greater than 90%.
